Laboratory results from patent US7662810B2, “2-arylmethylazetidine carbapenem derivatives and preparation thereof” (Korea Research Institute of Chemical Technology, priority 2004, dated 2010).

Experiments:
[1] = tested on: Enterobacter cloacae 1321 E; test: Measurement of Minimum Inhibitory Concentration (MIC); format: cell-based
Description: (§1) The antibacterial activities of the compounds of the present invention prepared in the above Examples against Gram-positive and Gram-negative bacteria, MRSA and QRS were tested as follows.
(§2) Respective bacterial strains were inoculated into 3 ml of Fleisch extract broth (beef extract 1%, peptone 1%, NaCl 0.3%, Na2HPO4.12H2O 0.2%, pH 7.4-7.5. 10% horse serum was supplemented for Streptococcus pyogenes and S. facium) and cultured on a shaking incubator at 37° C. for 18 hours. About 10^4 CFU/spot of the cultured bacterial strains were inoculated onto Müller-Hinton agar plates containing serial double dilutions (final concentration of 0.002 to 100 μg/ml) of a test compound employing an automatic inoculator (Dynatech, USA), and incubated at 37° C. for 18 hours. When the incubation was completed, the minimum inhibitory concentration was determined. Meropenem (Yuhan corporation, Korea) and vancomycin (Cj Inco., Korea) were used as standard antibiotics, respectively.

[2] = tested on: Enterobacter cloacae P 99; test: as above; format: cell-based
Description: as §1, §2

Escherichia coli 078 = test: as above; format: cell-based
Description: as §1, §2

Escherichia coli 1507 E = test: as above; format: cell-based
Description: as §1, §2

Escherichia coli DC 0 = test: as above; format: cell-based
Description: as §1, §2

Escherichia coli DC 2 = test: as above; format: cell-based
Description: as §1, §2

Escherichia coli TEM = test: as above; format: cell-based; settings: Escherichia coli TEM
Description: as §1, §2

[3] = tested on: Klebsiella aerogenes 1522 E; test: as above; format: cell-based
Description: as §1, §2

[4] = tested on: Klebsiella oxytoca 1082 E; test: as above; format: cell-based
Description: as §1, §2

[5] = tested on: Salmonella typhimurium 179; test: as above; format: cell-based; settings: Salmonella typhimurium 179
Description: as §1, §2

[6] = tested on: Staphylococcus aureus 285; test: as above; format: cell-based
Description: as §1, §2

[7] = tested on: Staphylococcus aureus 503; test: as above; format: cell-based
Description: as §1, §2

[8] = tested on: Staphylococcus faecium MD 8b; test: as above; format: cell-based; settings: Staphylococcus faecium MD 8b
Description: as §1, §2

[9] = tested on: Staphylococcus pyogenes 308A; test: as above; format: cell-based; settings: Staphylococcus pyogenes 308A
Description: as §1, §2

[10] = tested on: Staphylococcus pyogenes 77A; test: as above; format: cell-based; settings: Staphylococcus pyogenes 77A
Description: as §1, §2

[11] = tested on: Staphylococcus aureus 121E; test: Measurement of Minimum Inhibitory Concentration (MIC), MRSA; format: cell-based; settings: Staphylococcus aureus 121E
Description: as §1, §2

[12] = tested on: Staphylococcus aureus 208E; test: as above; format: cell-based; settings: Staphylococcus aureus 208E
Description: as §1, §2

[13] = tested on: Staphylococcus aureus 256E; test: as above; format: cell-based; settings: Staphylococcus aureus 256E
Description: as §1, §2

[14] = tested on: Staphylococcus aureus 690E; test: as above; format: cell-based; settings: Staphylococcus aureus 690E
Description: as §1, §2

[15] = tested on: Staphylococcus aureus 692E; test: as above; format: cell-based; settings: Staphylococcus aureus 692E
Description: as §1, §2

[16] = tested on: Staphylococcus aureus 693E; test: as above; format: cell-based; settings: Staphylococcus aureus 693E
Description: as §1, §2

[17] = tested on: Staphylococcus aureus 694E; test: as above; format: cell-based; settings: Staphylococcus aureus 694E
Description: as §1, §2

[18] = tested on: Staphylococcus aureus 695E; test: as above; format: cell-based; settings: Staphylococcus aureus 695E
Description: as §1, §2

[19] = tested on: Staphylococcus aureus 697E; test: as above; format: cell-based; settings: Staphylococcus aureus 697E
Description: as §1, §2

[20] = tested on: Staphylococcus aureus 88E; test: as above; format: cell-based; settings: Staphylococcus aureus 88E
Description: as §1, §2

[21] = tested on: Staphylococcus aureus 179; test: Measurement of Minimum Inhibitory Concentration (MIC), QRS; format: cell-based; settings: QRS, Staphylococcus aureus 179
Description: as §1, §2

[22] = tested on: Staphylococcus aureus 241; test: as above; format: cell-based; settings: QRS, Staphylococcus aureus 241
Description: as §1, §2

[23] = tested on: Staphylococcus aureus 293; test: as above; format: cell-based; settings: QRS, Staphylococcus aureus 293
Description: as §1, §2

[24] = tested on: Staphylococcus epidermidis 178; test: as above; format: cell-based; settings: QRS, Staphylococcus epidermidis 178
Description: as §1, §2

[25] = tested on: Staphylococcus epidermidis 291; test: as above; format: cell-based; settings: QRS, Staphylococcus epidermidis 291
Description: as §1, §2

[26] = Test of Pharmacokinetics in Animals (mice); format: in vivo; settings: mouse, in vivo, 40 mg/kg
Description: The pharmacokinetics of the carbapenem derivatives of the present invention was determined using mice. […] Standard antibiotic samples were prepared by serial two-fold dilution with control blood. […] PK (pharmacokinetic) change indicators (AUC, Tmax, Cmax and T1/2) of the test compound concentration remaining in the mouse blood over time were assayed over a set period.

[27] = biological target: T1, Dihydropeptidase-1 (DHP-1) (Sus scrofa, UniProt P22412)
T1 sequence (P22412 17-384): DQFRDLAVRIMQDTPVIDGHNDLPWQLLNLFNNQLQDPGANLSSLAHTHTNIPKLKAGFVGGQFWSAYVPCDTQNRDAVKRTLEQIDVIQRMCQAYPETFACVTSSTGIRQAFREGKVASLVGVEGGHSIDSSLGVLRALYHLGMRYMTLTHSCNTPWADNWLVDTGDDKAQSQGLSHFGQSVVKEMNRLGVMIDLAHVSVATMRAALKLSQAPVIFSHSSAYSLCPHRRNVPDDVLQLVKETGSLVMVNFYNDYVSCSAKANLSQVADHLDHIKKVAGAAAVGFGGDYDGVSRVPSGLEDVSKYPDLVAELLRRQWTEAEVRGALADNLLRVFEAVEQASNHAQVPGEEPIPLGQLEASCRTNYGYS
Description: (§3) The rate of degradation of the inventive compounds by the action of DHP-1 enzyme extracted from hog kidney was determined as follow.
(§4) 0.2 unit of the enzyme was allowed to react with the above solution at 30° C., and the absorbance at 299 nm of the remaining medicament was measured to determine the degradation rate. The absorbance was measured at 0, 0.5, 1, 2 and 4 hour points, and T1/2, the time when the concentration of the medicament become the half, was obtained by regression analysis.

[28] = biological target: T1, Dihydropeptidase-1 (DHP-1); test: Sensitivity Assay Against Dihydropeptidase-1 (DHP-1); settings: pig, DHP-1 enzyme extracted from hog kidney
Description: as §3, §4

C[C@@H](O)[C@H]1C(=O)N2C(C(=O)[O-])=C(SC3CN(Cc4ccccc4)C3)[C@H](C)[C@H]12.[K+] [Exam. 13, Potassium(1R,5S,6S)-2-(1-benzyl-azetidine-3-yl-thio)-6-[(1R)-1-hydroxylethyl]-1-methylcarbapen-2-em-3-carboxylate]
MIC [1]: 0.049 µg/mL
MIC [2]: 0.098 µg/mL
MIC (Escherichia coli 078): 0.049 µg/mL
MIC (Escherichia coli 1507 E): 0.049 µg/mL
MIC (Escherichia coli DC 0): 0.098 µg/mL
MIC (Escherichia coli DC 2): 0.025 µg/mL
MIC (Escherichia coli TEM): 0.049 µg/mL
MIC [3]: 0.098 µg/mL
MIC [4]: 0.049 µg/mL
MIC [5]: 0.049 µg/mL
MIC [6]: 0.025 µg/mL
MIC [7]: 0.013 µg/mL
MIC [8]: 1.563 µg/mL
MIC [9]: 0.002 µg/mL
MIC [10]: 0.002 µg/mL
MIC [11]: 0.025 µg/mL
MIC [12]: 0.049 µg/mL
MIC [13]: 0.013 µg/mL
MIC [14]: 0.391 µg/mL
MIC [15]: 0.025 µg/mL
MIC [16]: 3.125 µg/mL
MIC [17]: 1.563 µg/mL
MIC [18]: 0.391 µg/mL
MIC [19]: 0.025 µg/mL
MIC [20]: 0.025 µg/mL
MIC [21]: 0.049 µg/mL
MIC [22]: 0.049 µg/mL
MIC [23]: 0.098 µg/mL
MIC [24]: 0.391 µg/mL
MIC [25]: 0.391 µg/mL
AUC, times higher than meropenem [26]: 10 to 12 times
increase in T1/2 than meropenem [26]: more than 2 times
AUC (area under blood-medicament concentration curve till 24 hours from administration) ([26]; po): 1730 ng·h/mL
Cmax ([26]; po): 1060 ng/mL
T1/2 (half time of blood-medicament concentration) ([26]; po): 48.6 min
Tmax ([26]; po): 29.4 min
absorption through the oral route ([26]; po): absorbed through the oral route to significant extents
AUC (area under blood-medicament concentration curve till 24 hours from administration) ([26]; sc): 94760 ng·h/mL
Cmax ([26]; sc): 86830 ng/mL
T1/2 (half time of blood-medicament concentration) ([26]; sc): 55.2 min
Tmax ([26]; sc): 13.2 min
T1/2 (time when the concentration of the medicament become the half) [27]: 19.28

C[C@@H](O)[C@H]1C(=O)N2C(C(=O)O)=C(SCCN=CN)C[C@H]12 [Imipenem, imipenem]
half-life at 500 μg/ml [28]: 143 min
